This is an account of results in patent publication US11421194B2, “Pumpless platform for high-throughput dynamic multicellular culture and chemosensitivity evaluation” (Hackensack Meridian Health Center For Discovery and …, priority 2018, dated 2022).

The structures appear in SMILES notation.

This data set deals with MM.1S cells. As to the kind of experiment: Chemosensitivity evaluation of MM.1S cells to bortezomib in the pumpless culture platform (LIVE/DEAD in situ staining, HCS). Format: cell-based, human. The settings on record: 4 h treatment, 24 h recovery. The procedure: The high-throughput capability of the pumpless culture platform was evaluated by studying the response of MM.1S cells to bortezomib at four different concentrations (0 nM, 5 nM, 10 nM, 20 nM). Bortezomib is a proteasome inhibitor that induces MM cell apoptosis.^29 Before introducing MM.1S cells, OSB were dynamically cultured for 4 days (in a CO2 incubator at […]). MM.1S cells were pre-labeled with 5 μM cell trace violet (Thermo Fisher Scientific), 10 μL MM.1S with a cell density of 4 million/ml were seeded into culture chambers ([…]). The device was then placed inside a CO2 incubator at 37° C. for 4 h to let MM.1S settle prior to starting the flow. Cells were co-cultured for another 24 h, and then treated with bortezomib for 4 h. After drug treatment, the medium was changed and cultures were allowed to recover for a 24 h period before analyses were conducted. MM.1S alone, cultured in the device but under static conditions were used as control.
Cell viability after treatment and recovery was determine as described above, using LIVE/DEAD Viability/Cytotoxicity Kit (0.1 μM calcein AM & 0.1 μM EthD-1). Culture chambers were scanned using HCS (CellInsight™ CX5, Thermo Fisher Scientific). Cell trace violet^+ calcein AM^+ cells were identified as live MM.1S and cell trace violet^+ EthD-1^+ cells were identified as dead cells, using pre-design CX5 software algorithms (HCS Studio 2.0 Cell Analysis Software) for cell quantification and rapid analysis.
Data quantification was performed automatically using the HCS Studio Software. The percentage of live (cell trace violet^+ calcein AM^+ cells/cell trace violet^+ cells) and dead (cell trace violet^+EthD-1^+/cell trace violet^+ cells) MM.1S cells were plotted against bortezomib concentration.

Turning to `CC(C)C[C@H](NC(=O)[C@H](Cc1ccccc1)NC(=O)c1cnccn1)B(O)O` [bortezomib], the viability at 0.005 µM (Homo sapiens, MM1.S, MM.1S cultured alone, static, bortezomib 5 nM, read-out: viability (percentage of live MM.1S: cell trace violet+ calcein AM+ cells/cell trace violet+ cells)) was around 60%. Also, the viability at 0.01 µM (Homo sapiens, MM1.S, MM.1S cultured alone, static, bortezomib 10 nM, read-out: viability (percentage of live MM.1S: cell trace violet+ calcein AM+ cells/cell trace violet+ cells)) was around 15%. Further, the “viability (percentage of live MM.1S: cell trace violet+ calcein AM+ cells/cell trace violet+ cells)” value (MM.1S in co-culture with OSB (hFOB 1.19), dynamic culture, bortezomib treatment range 0 nM to 10 nM) is around 70%.
